Data taken from patent publication US20240190890A1, “MK2 INHIBITORS AND USES THEREOF” (Bristol-Myers Squibb Company, priority 2022, published 2024).

Target: p38a activated, mitogen-activated protein kinase-activated protein kinase 2 (MAPKAP-K2 or MK2) enzyme (Homo sapiens (Human), UniProt P49137)
Experiment: MK2 Omnia continuous-read kinase assay for compound potency
Format: biochemical
Conditions: [MK-2]=0.4 nM, [ATP]=10 μM, [ST3-Sox]=10 μM; room temperature
From the text: Mitogen-Activated Protein Kinase-Activated Protein Kinase 2 Omnia® Assay for Compound Potency Assessment:
The protocol below describes a continuous-read kinase assay optimized to measure potency of compounds against p38a activated, mitogen-activated protein kinase-activated protein kinase 2 (MAPKAP-K2 or MK2) enzyme. Further details of this assay are described by Life Technologies, Carlsbad, CA on their website at the following URL: http://tools.lifetechnologies.com/content/sfs/manuals/omnia_kinase_assay_man.pdf. • [Reagent] used: • [MK-2]=0.4 nM, • [ATP]=10 μM and • [ST3-Sox]=10 μM (ATP^appKM=10 μM)
Briefly, 10× stock solutions of MK2 (PV3317, from Life Technologies), 1.13X ATP (AS001A), and Sox conjugated peptide substrate, S/T3-Sox, (KZN1031) were prepared in 1× kinase reaction buffer consisting of 20 mM Tris, pH 7.5, 5 mM MgCl2, 1 mM EGTA, 5 mM β-glycerophosphate, 5% glycerol (10× stock, KB001A) and 0.2 mM DTT (DS001A). Enzyme solution (5 μL) was added to each of DMSO ([…]) or serially diluted test compounds prepared in DMSO in a Corning (#3574) 384-well, white, non-binding surface microtiter plate (Corning, NY). Kinase reactions were started with the addition of 45 μL of the ATP-peptide substrate S/T3-Sox mix and monitored every 71 seconds for 120 minutes at λex360/λem485 in a Synergy H4 plate reader from BioTek (Winooski, VT) at room temperature.
Background signals from the no enzyme control wells were subtracted from all progress curves. The initial linear portions of the net progress curves were fit according to a linear equation to yield the slope and percentage of inhibition (% inhibition) at each compound concentration. The net progress curves obtained during the first two hours of reactions were also fit according to an ascending single-exponential equation (Eq. 1) to yield kobs values at each compound concentration. Plots of % Inhibition versus inhibitor concentrations were fit according to a dose-response equation (Eq. 2) to generate IC50 and Hill slope values while plots of kobs versus inhibitor concentration were fit according to Equation 3 (Eq. 3) to generate apparent kinact/K1 values using the GraphPad PRISM software (Version 6.00; GraphPad San Diego, CA).
where F is the fluorescence intensity from the plate reader, V0 is a constant reflecting the relationship between the instrument readout and product concentration, t is time, e is Euler's number, and kobs is the observed inactivation rate constant.
where % Inhibition is percentage of inhibition, IC50 is half maximal inhibitory concentration, [I] is the inhibitor concentration, and n is the Hill slope.
where kobs is the observed inactivation rate constant, kinact is the apparent inactivation rate constant, K1 is the apparent inhibition constant, and [I] is the inhibitor concentration. […] Potency results for the compounds tested are shown in Table 4 in the column entitled “MK2 IC50.”

Chain of p38a activated, mitogen-activated protein kinase-activated protein kinase 2 (MAPKAP-K2 or MK2) enzyme (P49137 whole entry): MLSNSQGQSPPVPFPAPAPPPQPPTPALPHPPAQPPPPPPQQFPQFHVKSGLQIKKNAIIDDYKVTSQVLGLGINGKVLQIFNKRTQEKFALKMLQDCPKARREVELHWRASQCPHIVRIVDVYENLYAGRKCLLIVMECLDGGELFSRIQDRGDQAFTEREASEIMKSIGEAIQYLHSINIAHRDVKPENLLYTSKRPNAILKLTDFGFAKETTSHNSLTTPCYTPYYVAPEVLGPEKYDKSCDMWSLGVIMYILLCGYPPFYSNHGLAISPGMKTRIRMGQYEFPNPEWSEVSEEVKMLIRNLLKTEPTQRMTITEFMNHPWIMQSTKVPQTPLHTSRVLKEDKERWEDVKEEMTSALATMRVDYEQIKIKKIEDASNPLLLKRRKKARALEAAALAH

| SMILES | IC50 [nM] |
| --- | --- |
| C=Cc1nc(C)cn1-c1ccc2c(ccc3sc4c(c32)NC[C@@H](C)NC4=O)n1 [Example I-206, (R)-10-methyl-3-(4-methyl-2-vinyl-1H-imidazol-1-yl)-9,10,11,12-tetrahydro-8H-[1,4]diazepino[5′,6′:4,5]thieno[3,2-f]quinolin-8-one] | 4 |
| C#Cc1nccc(-c2ccc3c(ccc4sc5c(c43)NC[C@@H](C)NC5=O)n2)c1C [Example I-220, (R)-3-(2-ethynyl-3-methylpyridin-4-yl)-10-methyl-9,10,11,12-tetrahydro-8H-[1,4]diazepino[5′,6′:4,5]thieno[3,2-f]quinolin-8-one] | 177 |
| C=Cc1cncc(-c2ccc3c(ccc4sc5c(c43)NC[C@@H](C)NC5=O)n2)n1 [Example I-163, (R)-10-methyl-3-(6-vinylpyrazin-2-yl)-9,10,11,12-tetrahydro-8H-[1,4]diazepino[5′,6′:4,5]thieno[3,2-f]quinolin-8-one] | 109 |
| C[C@@H]1CNc2c(sc3ccc4nc(-c5cc(Cl)nc(C6CCN(C)CC6)c5)ccc4c23)C(=O)N1 [Example I-103, (R)-3-(2-chloro-6-(1-methylpiperidin-4-yl)pyridin-4-yl)-10-methyl-9,10,11,12-tetrahydro-8H-[1,4]diazepino[5′,6′:4,5]thieno[3,2-f]quinolin-8-one] | 46 |
| C#Cc1cc(-c2ccc3c(ccc4sc5c(c43)NC[C@@H](C)NC5=O)n2)c(C#N)cn1 [Example I-162, (R)-6-ethynyl-4-(10-methyl-8-oxo-9,10,11,12-tetrahydro-8H-[1,4]diazepino[5′,6′:4,5]thieno[3,2-f]quinolin-3-yl)nicotinonitrile] | 2 |
| C=Cc1cc(-c2ccc3c(ccc4sc5c(c43)NC[C@@H](C)NC5=O)n2)c(COC)cn1 [Example I-253, (R)-3-(5-(methoxymethyl)-2-vinylpyridin-4-yl)-10-methyl-9,10,11,12-tetrahydro-8H-[1,4]diazepino[5′,6′:4,5]thieno[3,2-f]quinolin-8-one] | 6 |
| C#Cc1cc(-c2ccc3c(ccc4sc5c(c43)NC[C@@H](C)NC5=O)n2)c(OC)nn1 [Example I-91, (R)-3-(6-ethynyl-3-methoxypyridazin-4-yl)-10-methyl-9,10,11,12-tetrahydro-8H-[1,4]diazepino[5′,6′:4,5]thieno[3,2-f]quinolin-8-one] | 26 |
| C[C@@H]1CNc2c(sc3ccc4nc(-c5nc(Cl)ncc5CO)ccc4c23)C(=O)N1 [Example I-75, (R)-3-(2-chloro-5-(hydroxymethyl)pyrimidin-4-yl)-10-methyl-9,10,11,12-tetrahydro-8H-[1,4]diazepino[5′,6′:4,5]thieno[3,2-f]quinolin-8-one] | 470 |
| C#Cc1ncc(C)c(-c2ccc3c(ccc4sc5c(c43)NC[C@@H](C)NC5=O)n2)n1 [Example I-41, (R)-3-(2-ethynyl-5-methylpyrimidin-4-yl)-10-methyl-9,10,11,12-tetrahydro-8H-[1,4]diazepino[5′,6′:4,5]thieno[3,2-f]quinolin-8-one] | 199 |
| C=Cc1cc(-c2ccc3c(ccc4sc5c(c43)NC[C@@H](C)NC5=O)n2)c(C)c(C)n1 [Example I-194, (R)-3-(2,3-dimethyl-6-vinylpyridin-4-yl)-10-methyl-9,10,11,12-tetrahydro-8H-[1,4]diazepino[5′,6′:4,5]thieno[3,2-f]quinolin-8-one] | 5 |
| C=Cc1cnc(C)c(-c2ccc3c(ccc4sc5c(c43)NC[C@@H](C)NC5=O)n2)n1 [Example I-181, (R)-10-methyl-3-(3-methyl-6-vinylpyrazin-2-yl)-9,10,11,12-tetrahydro-8H-[1,4]diazepino[5′,6′:4,5]thieno[3,2-f]quinolin-8-one] | 39 |
| C=Cc1cc(-c2ccc3c(ccc4sc5c(c43)NC[C@@H](C)NC5=O)n2)cc(Cl)n1 [Example I-72, (R)-3-(2-chloro-6-vinylpyridin-4-yl)-10-methyl-9,10,11,12-tetrahydro-8H-[1,4]diazepino[5′,6′:4,5]thieno[3,2-f]quinolin-8-one] | 58 |
| C[C@@H]1CNc2c(sc3ccc4nc(-c5ccnc(Cl)c5)ccc4c23)C(=O)N1 [Example I-272, (R)-3-(2-chloropyridin-4-yl)-10-methyl-9,10,11,12-tetrahydro-8H-[1,4]diazepino[5′,6′:4,5]thieno[3,2-f]quinolin-8-one] | 68 |
| C=Cc1ncc(COC2(C)CCC2)c(-c2ccc3c(ccc4sc5c(c43)NC[C@@H](C)NC5=O)n2)n1 [Example I-26, (R)-10-methyl-3-(5-((1-methylcyclobutoxy)methyl)-2-vinylpyrimidin-4-yl)-9,10,11,12-tetrahydro-8H-[1,4]diazepino[5′,6′:4,5]thieno[3,2-f]quinolin-8-one] | 684 |
| C=Cc1ncc(-c2ccc3c(ccc4sc5c(c43)NC[C@@H](C)NC5=O)n2)[nH]1 [Example I-150, (R)-10-methyl-3-(2-vinyl-1H-imidazol-5-yl)-9,10,11,12-tetrahydro-8H-[1,4]diazepino[5′,6′:4,5]thieno[3,2-f]quinolin-8-one] | 14 |
| C=Cc1cc(-c2ccc3c(ccc4sc5c(c43)NC[C@@H](C)NC5=O)n2)nc(CO)n1 [Example I-76, (R)-3-(2-(hydroxymethyl)-6-vinylpyrimidin-4-yl)-10-methyl-9,10,11,12-tetrahydro-8H-[1,4]diazepino[5′,6′:4,5]thieno[3,2-f]quinolin-8-one] | 1 |
| C=Cc1cc(-c2ccc3c(ccc4sc5c(c43)NC[C@@H](C)NC5=O)n2)c(CN2CC(F)(F)C2)cn1 [Example I-211, (R)-3-(5-((3,3-difluoroazetidin-1-yl)methyl)-2-vinylpyridin-4-yl)-10-methyl-9,10,11,12-tetrahydro-8H-[1,4]diazepino[5′,6′:4,5]thieno[3,2-f]quinolin-8-one] | 275 |
| C#Cc1ncc(COCC)c(-c2ccc3c(ccc4sc5c(c43)NC[C@@H](C)NC5=O)n2)n1 [Example I-12, (R)-3-(5-(ethoxymethyl)-2-ethynylpyrimidin-4-yl)-10-methyl-9,10,11,12-tetrahydro-8H-[1,4]diazepino[5′,6′:4,5]thieno[3,2-f]quinolin-8-one] | 87 |
| C#Cc1ncc(CO)c(-c2ccc3c(ccc4sc5c(c43)NC[C@@H](C)NC5=O)n2)n1 [Example I-79, (R)-3-(2-ethynyl-5-(hydroxymethyl)pyrimidin-4-yl)-10-methyl-9,10,11,12-tetrahydro-8H-[1,4]diazepino[5′,6′:4,5]thieno[3,2-f]quinolin-8-one] | 568 |
| C#Cc1nncn1-c1ccc2c(ccc3sc4c(c32)NC[C@@H](C)NC4=O)n1 [Example I-204, (R)-3-(3-ethynyl-4H-1,2,4-triazol-4-yl)-10-methyl-9,10,11,12-tetrahydro-8H-[1,4]diazepino[5′,6′:4,5]thieno[3,2-f]quinolin-8-one] | 555 |
| [2H]C([2H])([2H])N1CCN(c2cc(-c3ccc4c(ccc5sc6c(c54)NC[C@@H](C)NC6=O)n3)cc(C=C)n2)CC1 [Example I-171, (R)-10-methyl-3-(2-(4-(methyl-d3)piperazin-1-yl)-6-vinylpyridin-4-yl)-9,10,11,12-tetrahydro-8H-[1,4]diazepino[5′,6′:4,5]thieno[3,2-f]quinolin-8-one] | 13 |
| C#Cc1cc(-c2ccc3c(ccc4sc5c(c43)NC[C@@H](C)NC5=O)n2)cc(Cl)n1 [Example I-73, (R)-3-(2-chloro-6-ethynylpyridin-4-yl)-10-methyl-9,10,11,12-tetrahydro-8H-[1,4]diazepino[5′,6′:4,5]thieno[3,2-f]quinolin-8-one] | 75 |
| C=Cc1nc(-c2ccc3c(ccc4sc5c(c43)NC[C@@H](C)NC5=O)n2)nn1C [Example I-208, (R)-10-methyl-3-(1-methyl-5-vinyl-1H-1,2,4-triazol-3-yl)-9,10,11,12-tetrahydro-8H-[1,4]diazepino[5′,6′:4,5]thieno[3,2-f]quinolin-8-one] | 285 |
| COc1cnc(Cl)nc1-c1ccc2c(ccc3sc4c(c32)NC[C@@H](C)NC4=O)n1 [Example I-10, (R)-3-(2-chloro-5-methoxypyrimidin-4-yl)-10-methyl-9,10,11,12-tetrahydro-8H-[1,4]diazepino[5′,6′:4,5]thieno[3,2-f]quinolin-8-one] | 291 |
